Patent publication US11672766B2, “Therapeutic cationic peptides and unimolecular nanoparticles for efficient delivery thereof” (Wisconsin Alumni Research Foundation, priority 2017, dated 2023)
Where no end group is shown, it is not given here. [ ]: non-standard residue; d: D form. Arg(Me2a) = CN(C)C(=N)NCCC[C@H](N)C(=O)O

How the values were obtained:
[1] = tested on: MCF7 cells (parental, PKM2 KO, PKM2wt/shPKM1, PKM2mut/shPKM1); assay: Cell death by PI staining after IP3Rs inhibition; format: cell-based; conditions: MCF7 lines, 3.5 μM XeB, 24 hours
Procedure: (§1) Cell apoptosis and death assays were based on the previously described method. See Cardenas, C., et al., “Selective Vulnerability of Cancer Cells by Inhibition of Ca(2+) Transfer from Endoplasmic Reticulum to Mitochondria,” Cell Rep 14, 2313-2324 (2016). Briefly, cell apoptosis was determined by annexin V/APC and propidium iodide (PI) staining. Cell death was determined by PI staining using flow cytometry.

[2] = tested on: MDA-MB-231 cells (parental, PKM2 KO, PKM2wt/shPKM1, PKM2mut/shPKM1); assay: Cell death by PI staining after IP3Rs inhibition; format: cell-based, human; conditions: MDA-MB-231 lines, 5 μM XeB, 24 hours
Procedure: as §1

[3] = target: T1, CARM1-mediated methylation of PKM2 (Homo sapiens, UniProt Q86X55); assay: In vitro methylation assay of PKM2 by CARM1 (3H-SAM, autoradiography); format: biochemical; conditions: for PKM2 methylation by CARM1: FBP 100 μM or TEPP-46 1 μM; for CARM1-mediated methylation of PKM2: free peptide or peptide encapsulated in UMNP
T1 construct: HaloTag (cleaved yes); made in house; host or cells: CARM1: HEK293T (transient)
T1 sequence (Q86X55 1-608): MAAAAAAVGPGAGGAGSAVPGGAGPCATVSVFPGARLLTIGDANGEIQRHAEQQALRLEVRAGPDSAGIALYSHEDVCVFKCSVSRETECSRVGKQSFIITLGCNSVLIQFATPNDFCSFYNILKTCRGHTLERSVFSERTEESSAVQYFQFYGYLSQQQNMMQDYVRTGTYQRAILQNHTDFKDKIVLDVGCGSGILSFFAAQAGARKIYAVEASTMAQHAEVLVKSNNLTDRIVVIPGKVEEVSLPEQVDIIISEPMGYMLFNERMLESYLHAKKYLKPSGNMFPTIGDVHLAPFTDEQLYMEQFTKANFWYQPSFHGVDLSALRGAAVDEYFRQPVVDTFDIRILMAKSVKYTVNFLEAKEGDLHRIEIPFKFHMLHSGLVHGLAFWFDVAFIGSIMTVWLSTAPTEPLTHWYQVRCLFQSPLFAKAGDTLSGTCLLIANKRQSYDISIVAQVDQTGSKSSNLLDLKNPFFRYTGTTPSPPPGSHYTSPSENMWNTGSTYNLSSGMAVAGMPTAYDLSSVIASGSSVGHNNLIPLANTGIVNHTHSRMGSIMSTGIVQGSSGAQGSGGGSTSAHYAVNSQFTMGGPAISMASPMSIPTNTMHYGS
Procedure: (§2) In vitro methylation assay was performed as previously described (Wang et al., 2014). Purified histones or purified substrate proteins were mixed with the protein arginine methyltransferases (PRMTs) in the presence of ^3H-SAM. [^3H]-labeled substrates were resolved by SDS-PAGE and detected by autoradiography.
Human PRMT1-8 cDNAs were cloned into pFN21K HaloTag CMV Flexi Vector (Promega) (Wang et al., 2014). These plasmids were transiently transfected into HEK293T cells for 36 hours. The cells were harvested in binding buffer (HEPES 50 mM, NaCl 150 mM, NP40 0.005%, 0.5 mM EDTA, pH 7.5) and sonicated at 35% power (amplitude) with 10 s on, 30 s off, 4-6 cycles on ice, and then centrifuged and collected the supernatant. The supernatant was incubated with HaloLink resin (Promega) overnight at 4° C. The beads were washed with binding buffer twice and then incubated with 1M urea in binding buffer for 20 min at room temperature. After washing the beads with binding buffer twice, the proteins were eluted with 20 μg/mL TEV in cleavage buffer (DTT 1 mM in binding buffer). For purification of Flag-tagged proteins, the plasmids were transiently transfected into HEK293T cells for 36 hours. The cells were harvested in lysis buffer on ice for 30 min, and then centrifuged and collected the supernatant. Flag M2 Affinity Gel was added into the supernatant and incubated for 2 hours, and then the Gel was washed with PBS four times. The proteins were eluted by 150 μg/mL 3× Flag peptide in 0.5 M Tris HCl and 1M NaCl pH 7.5. For His-tagged or GST-tagged proteins purification, PKM1 and PKM2 cDNA were inserted pET-21a (+) or pGEX-2T plasmid. The plasmids were then transfected into E. coli BL-21 competent cells. Protein expression was induced by the presence of 0.5 mM IPTG overnight at 20° C. After centrifugation, pellet was resuspended in sonication buffer (1% Triton X-100, 1 mM EDTA, 1 mM DTT in PBS) and sonicated at 50% power (amplitude) with 30 s on, 30 s off, 10 cycles on ice or until the suspension became clear. After centrifugation, the supernatant was incubated with Ni-NTA Agarose or Glutathione Agarose Resin for 2 hours at room temperature. For His-tagged proteins, Beads were washed with PBS twice, then washed with 10 mM imidazole in elution buffer (1% Triton X-100, 0.1% glycerol in PBS) once. The His-tagged proteins were eluted with 250 mM imidazole. For GST-tagged proteins, beads were washed with PBS four times and eluted with glutathione elution buffer (50 mM Glutathione, 50 mM Tris HCl, pH 8.0, 100 mM NaCl, and 1 mM EDTA). The eluted proteins were dialyzed with PBS containing 0.1% glycerol.

[4] = target: T2, histone H3 methylation by CARM1 (Homo sapiens, UniProt Q86X55); assay: In vitro methylation assay of control substrate histone H3 by CARM1; format: biochemical; conditions: FBP 100 μM or TEPP-46 1 μM
T2 construct: HaloTag (cleaved yes); made in house; host or cells: HEK293T (transient transfection)
T2 sequence (Q86X55 1-608): T1 sequence (Q86X55 1-608)
Procedure: as §2

MCF7 cells [5] = assay: MTT cell proliferation assay; format: cell-based; conditions: peptides delivered by UMNP (FIG. 14E)
Procedure: (§3) For quantitative proliferation assays, 1000 cells per well were seeded onto 96-well plates. 3-(4,5-dimethylthiazol-2-yl)-2,5-diphenyltetrazolium bromide (MTT) solution (20 μL per well, 4 mg/mL) was added into the wells and incubated 4 hours. After discarding the supernatant, 200 μL DMSO was added and the absorbance value (optical density) was measured at 490 nm on a Victor X5 microplate reader (Perkin Elmer, Waltham, Mass.). In the next 3 days, the absorbance value was measured every day. For 5-Ethynyl-2′-deoxyuridine (EdU) incorporation assay, 3×10^5 cells were seeded into 6-well plate and incubated 10 μM EdU for 1 hour, followed by the procedures described in the Click-iT® EdU cytometry assay kit according to the manufacturer's instructions. Cells were then analyzed on BD LSRII. For clonogenicity assay, 1000 viable transfected cells were placed in six-well plates and maintained in complete medium for 2 weeks. Colonies were washed with PBS and fixed with 3.7% formaldehyde for 15 min at room temperature, and then stained for 20 min with 0.05% crystal violet.

MDA-MB-231 cells [6] = assay: Transwell cell migration assay; format: cell-based, human; conditions: peptides delivered by UMNP (FIG. 14F)
Procedure: (§4) Cell migration assay was performed as previously described (Wang et al., 2014) using 8.0 μm pore size Transwell inserts (Costar Corp., Cambridge, Mass.). Briefly, 1×10^5 cells in 100 μL serum free media were added into the upper chamber, 500 μL culture media with 20% FBS was in the lower well. After 12 hours culture, removed the cells on the upper surface of the membrane and fixed the migrant cells attached to the lower surface with 3.7% formaldehyde in culture media at 37° C. for 15 min, and then stained for 20 min with 0.05% crystal violet.

[7] = tested on: MDA-MB-231 PKM2mut/shPKM1 cells; assay: Cell migration of ROS highly producing cells; format: cell-based, human
Procedure: as §4

[8] = tested on: MCF7 PKM2mut/shPKM1, MDA-MB-231 PKM2mut/shPKM1, MCF7 CARM1 KO cells; assay: MTT cell growth in ROS highly producing cells; format: cell-based; conditions: PKM2 KO, PKM2 KO expressing PKM2mut and CARM1 KO cells
Procedure: as §3

MDA-MB-231 cells [9] = assay: Lactate production normalized to cell numbers; format: cell-based, human; conditions: TEPP-46 vs DMSO, DCA treated
IP3R3 = assay: Western blot analysis of IP3R3 protein levels in MCF7 cells; format: cell-based; conditions: parental MCF7, TEPP-46 vs DMSO
MDA-MB-231 cells [10] = assay: Oxygen consumption rate (OCR), Seahorse XF96; format: cell-based, human; conditions: TEPP-46 vs DMSO, DCA treated
Procedure: (§5) The OCR was measured in an XF96 extracellular analyzer (Seahorse Bioscience). 2×10^4 cells per well were seeded into the 96-well plate and incubated in DMEM media with 10% FBS at 37° C. overnight. Next day, the media was changed to analysis media containing 10 mM glucose. The cells were incubated in a CO2-free incubator at 37° C. for 1 hour. Cells were sequentially exposed to oligomycin ([…] FCCP (0.5 μM) and rotenone (0.5 μM). Each point in traces represent the average of measurement from six different wells.

methyl-PKM2 = assay: Western blot analysis of methyl-PKM2 in MCF7 cells; format: cell-based; conditions: TEPP-46 vs DMSO
Procedure: Methyl-PKM2 specific anti-peptide antibody was prepared by Genemed Synthesis Inc., TX, using standard methods of peptide synthesis. The KLH-conjugated PKM2 peptide RYR(as)PR(as)[…] (SEQ ID NO: 58), with R445 and R447 asymmetrically dimethylated was synthesized. The peptide corresponding to human PKM2 amino acids 443-454, was used to immunize rabbits. To purify the di-me-PKM2 specific antibody, 10 mg dimethyl peptide (column A) and 10 mg control peptide (non-methyl) (column B) were coupled separately to cyanogen bromide activated agarose beads. 100 ml of antisera was then incubated with the peptide-agarose column A. The unbound antiserum was washed with 1×PBS buffer. After several washes, the antibody was eluted with 0.1 M glycine, pH 2.5; neutralized with 1M […] Tris, pH 8.0. The antibody was stabilized with 0.1% BSA [Elution A]. Elution A was then incubated with column B and then same procedure was followed for elution. The flow through from column B was the dimethyl-specific antibody (methyl-PKM2). The antisera and purified antibody were then tested by enzyme-linked immunosorbent assay (ELISA).

MCF7 cells [11] = assay: Oxygen consumption rate (OCR), Seahorse XF96; format: cell-based; conditions: TEPP-46 vs DMSO, DCA treated
Procedure: as §5

MCF7 cells [12] = assay: Lactate production normalized to cell numbers; format: cell-based; conditions: TEPP-46 vs DMSO, DCA treated

## C[C@@H]1CN2CCC[C@H]3CCCCCC[C@H]4CCN5CCC[C@@](O)(CCCCCC[C@@H]1O[C@H]32)[C@H]5O4 [XeB, Xestospongin B]
[1]
  cell death (vulnerability to IP3Rs inhibition): PKM2 KO or PKM2^mut cells are more vulnerable to XeB than parental and PKM2^wt cells
[2]
  cell death (vulnerability to IP3Rs inhibition): PKM2 KO or PKM2^mut cells are more vulnerable to XeB than parental and PKM2^wt cells

## O=P(O)(O)OC[C@H]1O[C@](O)(COP(=O)(O)O)[C@@H](O)[C@@H]1O [FBP]
[3]
  PKM2 methylation by CARM1: blockage of PKM2 methylation by CARM1
[4]
  histone H3 methylation by CARM1: neither TEPP-46 nor FBP treatment affected histone H3 methylation by CARM1

## methyl-peptide: negative control: corresponding peptide with R445 and R447 asymmetrically di-methylated (RY[Arg(Me2a)]P[Arg(Me2a)]APIIAVT; also: R445 and R447 asymmetrically di-methylated)
[3]
  CARM1-mediated methylation of PKM2: but not the control methyl-peptide, abrogated CARM1-mediated methylation of PKM2
MCF7 cells [5]
  proliferation of MCF7 cells (MTT): but not methyl-peptide, inhibited proliferation of the MCF7 cells
MDA-MB-231 cells [6]
  migration of MDA-MB-231 cells (transwell): but not methyl-peptide, inhibited proliferation of the MCF7 cells (FIG. 14E) and migration of MDA-MB-231 cells

## CC1(C)CC(NC(=O)C[P+](c2ccccc2)(c2ccccc2)c2ccccc2)CC(C)(C)N1[O] [mitTEMPO]
[7]
  cell migration: did not alter cell proliferation and migration
[8]
  cell proliferation: did not alter cell proliferation and migration

## Cn1c2cc([S+](C)[O-])sc2c2cnn(Cc3cccc(N)c3)c(=O)c21 (centres unmarked) [TEPP-46]
[3]
  PKM2 methylation by CARM1: blockage of PKM2 methylation by CARM1
MDA-MB-231 cells [9]
  lactate production: decreasing lactate production
IP3R3
  IP3R3 expression: elevated IP3R3 expression
MDA-MB-231 cells [10]
  OCR: significantly increased OCR
[4]
  histone H3 methylation by CARM1: neither TEPP-46 nor FBP treatment affected histone H3 methylation by CARM1
methyl-PKM2
  methyl-PKM2 level in cells: blocking its methylation
MCF7 cells [11]
  OCR: significantly increased OCR
MCF7 cells [12]
  lactate production: decreasing lactate production

## RYRPRAPIIAVT [non-methyl-peptide]
[3]
  CARM1-mediated methylation of PKM2: abrogated CARM1-mediated methylation of PKM2
MCF7 cells [5]
  proliferation of MCF7 cells (MTT): inhibited proliferation of the MCF7 cells
MDA-MB-231 cells [6]
  migration of MDA-MB-231 cells (transwell): inhibited proliferation of the MCF7 cells (FIG. 14E) and migration of MDA-MB-231 cells
